This note sets out measurements from ChEMBL document CHEMBL6127032, “Progress of ATM inhibitors: Opportunities and challenges” (Eur J Med Chem, 2024).

Data set [1] is described as follows: Inhibition of DNA-PK (unknown origin). Set-up: species or system Homo sapiens.
A short description of data set [2]: Solubility of compound in PBS buffer. In kind it is physicochemical.
Data set [3] in a line: Oral bioavailability in human. Format: ADME, organism-based. The conditions noted are these: in vivo.
A further data set concerns U2OS. Briefly: cells. The conditions noted are these: Homo sapiens.
Data set [4] has as its target T1, Serine-protein kinase ATM (Homo sapiens, UniProt Q13315). Description: Inhibition of ATM (unknown origin).
Data set [5] in a line: Inhibition of PI4K (unknown origin). On the set-up: species or system Homo sapiens.
Data set [6] has as its target T1, Serine-protein kinase ATM. Description: Inhibition of ATM in human HeLa cells. In kind it is cell-based.
The target of data set [7] is Serine/threonine-protein kinase mTOR (Homo sapiens, UniProt P42345). Briefly: Inhibition of mTOR (unknown origin).
Data set [8] is described as follows: Inhibition of PI3K (unknown origin). Set-up: species or system Homo sapiens.
In data set [9] the target is Serine/threonine-protein kinase ATR (Homo sapiens, UniProt Q13535). Description: Inhibition of ATR (unknown origin).

Converted amounts (≈) assume the structure as drawn.

T1 sequence (Q13315 whole entry): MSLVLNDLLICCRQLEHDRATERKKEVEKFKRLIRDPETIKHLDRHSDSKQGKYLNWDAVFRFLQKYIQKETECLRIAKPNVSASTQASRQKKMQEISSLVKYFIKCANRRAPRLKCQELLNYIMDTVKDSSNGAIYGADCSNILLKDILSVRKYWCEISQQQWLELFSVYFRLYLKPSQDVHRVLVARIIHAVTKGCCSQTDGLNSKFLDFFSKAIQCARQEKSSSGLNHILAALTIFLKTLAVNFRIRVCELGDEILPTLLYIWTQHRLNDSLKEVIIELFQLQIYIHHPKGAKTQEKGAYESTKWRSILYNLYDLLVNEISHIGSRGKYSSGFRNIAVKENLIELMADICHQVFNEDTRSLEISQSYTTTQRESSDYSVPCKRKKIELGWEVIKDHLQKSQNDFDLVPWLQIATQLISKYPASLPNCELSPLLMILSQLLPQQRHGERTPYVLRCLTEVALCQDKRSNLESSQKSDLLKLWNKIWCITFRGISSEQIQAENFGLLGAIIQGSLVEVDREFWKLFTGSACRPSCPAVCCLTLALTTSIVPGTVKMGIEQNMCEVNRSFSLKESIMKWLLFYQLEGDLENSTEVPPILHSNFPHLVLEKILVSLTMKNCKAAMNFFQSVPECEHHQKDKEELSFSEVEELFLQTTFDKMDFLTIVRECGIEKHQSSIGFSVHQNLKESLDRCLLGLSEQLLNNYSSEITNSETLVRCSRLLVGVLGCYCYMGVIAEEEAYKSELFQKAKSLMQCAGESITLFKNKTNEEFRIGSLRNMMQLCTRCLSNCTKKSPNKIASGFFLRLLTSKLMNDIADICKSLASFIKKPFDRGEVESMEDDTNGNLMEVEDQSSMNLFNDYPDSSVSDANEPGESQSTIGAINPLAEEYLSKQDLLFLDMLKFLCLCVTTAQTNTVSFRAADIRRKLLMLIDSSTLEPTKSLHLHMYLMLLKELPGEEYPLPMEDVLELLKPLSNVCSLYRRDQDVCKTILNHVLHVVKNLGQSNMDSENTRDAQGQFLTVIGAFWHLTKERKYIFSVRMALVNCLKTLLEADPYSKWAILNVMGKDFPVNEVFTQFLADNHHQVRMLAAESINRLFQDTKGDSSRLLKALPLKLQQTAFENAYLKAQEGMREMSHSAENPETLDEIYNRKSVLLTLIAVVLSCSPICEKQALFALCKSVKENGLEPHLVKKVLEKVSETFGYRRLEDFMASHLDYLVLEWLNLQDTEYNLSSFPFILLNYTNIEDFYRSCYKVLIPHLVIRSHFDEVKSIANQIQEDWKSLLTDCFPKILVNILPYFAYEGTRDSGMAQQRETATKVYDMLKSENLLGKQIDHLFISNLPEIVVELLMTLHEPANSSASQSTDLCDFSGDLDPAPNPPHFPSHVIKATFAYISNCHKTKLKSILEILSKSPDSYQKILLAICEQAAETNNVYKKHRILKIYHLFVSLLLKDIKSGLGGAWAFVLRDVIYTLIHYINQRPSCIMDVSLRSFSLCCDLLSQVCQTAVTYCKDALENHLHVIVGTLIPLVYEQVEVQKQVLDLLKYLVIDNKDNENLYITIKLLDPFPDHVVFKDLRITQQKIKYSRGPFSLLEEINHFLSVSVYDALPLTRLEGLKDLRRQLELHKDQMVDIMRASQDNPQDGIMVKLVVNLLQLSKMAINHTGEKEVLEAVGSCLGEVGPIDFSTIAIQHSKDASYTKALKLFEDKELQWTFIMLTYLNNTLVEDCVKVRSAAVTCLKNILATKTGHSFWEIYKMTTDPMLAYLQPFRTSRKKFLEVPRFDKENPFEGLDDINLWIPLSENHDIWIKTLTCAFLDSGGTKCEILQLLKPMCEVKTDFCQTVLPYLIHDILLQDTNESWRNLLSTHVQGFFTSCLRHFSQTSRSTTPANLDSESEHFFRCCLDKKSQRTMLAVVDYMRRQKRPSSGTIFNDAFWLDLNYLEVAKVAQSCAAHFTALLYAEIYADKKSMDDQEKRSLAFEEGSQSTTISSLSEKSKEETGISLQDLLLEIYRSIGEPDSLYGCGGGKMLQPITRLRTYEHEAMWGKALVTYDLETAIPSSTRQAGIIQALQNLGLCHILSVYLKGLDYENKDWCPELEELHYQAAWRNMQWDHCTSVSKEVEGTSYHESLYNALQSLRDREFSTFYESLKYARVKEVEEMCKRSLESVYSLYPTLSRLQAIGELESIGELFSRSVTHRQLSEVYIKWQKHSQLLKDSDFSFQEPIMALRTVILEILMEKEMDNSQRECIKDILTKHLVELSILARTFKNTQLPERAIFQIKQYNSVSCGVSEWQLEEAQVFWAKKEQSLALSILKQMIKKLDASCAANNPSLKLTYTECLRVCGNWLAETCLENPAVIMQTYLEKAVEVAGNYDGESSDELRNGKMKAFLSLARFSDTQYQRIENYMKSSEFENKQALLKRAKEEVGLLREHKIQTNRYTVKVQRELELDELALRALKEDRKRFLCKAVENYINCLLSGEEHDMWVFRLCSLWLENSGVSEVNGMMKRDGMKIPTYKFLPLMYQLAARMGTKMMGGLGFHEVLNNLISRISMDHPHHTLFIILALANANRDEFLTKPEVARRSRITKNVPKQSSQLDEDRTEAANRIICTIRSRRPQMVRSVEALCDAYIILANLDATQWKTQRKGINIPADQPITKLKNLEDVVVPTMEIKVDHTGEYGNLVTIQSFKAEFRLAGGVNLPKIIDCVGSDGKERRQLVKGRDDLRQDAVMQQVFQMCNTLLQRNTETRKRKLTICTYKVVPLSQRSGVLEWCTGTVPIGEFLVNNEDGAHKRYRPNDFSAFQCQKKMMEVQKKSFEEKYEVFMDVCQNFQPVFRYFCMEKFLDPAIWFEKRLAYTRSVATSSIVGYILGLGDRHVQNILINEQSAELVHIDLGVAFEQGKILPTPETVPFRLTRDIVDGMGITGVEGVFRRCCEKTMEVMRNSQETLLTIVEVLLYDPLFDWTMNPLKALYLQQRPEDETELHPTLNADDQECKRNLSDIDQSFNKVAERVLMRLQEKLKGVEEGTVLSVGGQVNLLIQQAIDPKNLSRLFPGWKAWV

One may read the IC50 as the midpoint of a concentration-inhibition curve. A high value points to weaker potency in that assay. Usually solubility stands for the dissolved amount per volume that the medium holds. Higher therefore signals a readily soluble substance. Compound `COc1cc2ncc3c(c2cc1-c1cn(C)nc1C)n(-c1c(F)cncc1OC)c(=O)n3C` [LARTESERTIB] showed an IC50 in data set [1] of 600 nM. The compound also gave a solubility in data set [2] of 93 µg/mL (≈ 207 µM).
For orientation: bioavailability means dose-corrected exposure relative to a reference, in per cent. Lower therefore signals little systemic uptake. In the case of `C[C@@H]1CN(CC(=O)Nc2ccc3c(c2)Cc2cccc(-c4cc(=O)cc(N5CCOCC5)o4)c2S3)C[C@H](C)O1`, the bioavailability in [3] is 37%.
With `O=c1cc(N2CCOCC2)cc(N2CCCCC[C@@H]2Cc2ccccc2)[nH]1`, the IC50 with U2OS came out at 230 nM.
In the case of `CC(C)n1c(=O)n(C)c2cnc3cc(F)c(-c4ccc(OCCCN5CCCCC5)nc4)cc3c21` [AZD-1390], inhibition in data set [4] was half-maximal at 7.8 nM (IC50).
For the compound `CN1CCN(CCC(=O)Nc2ccc3c(c2)Sc2cccc(-c4cc(=O)cc(N5CCOCC5)o4)c2S3)CC1`, the half-inhibitory concentration (IC50) in data set [5] was more than 100000 nM; in data set [6], 13 nM; in data set [7] it was more than 10000 nM; in data set [1] it was 9100 nM; in [8] it was 10000 nM; in data set [9], more than 100000 nM.
